Measured values as given in patent publication US8492559B2, “Substituted indole compounds” (Gruenenthal GmbH, priority 2009, dated 2013).

Biological target: T1, human B1R receptor (hB1R) (Homo sapiens, UniProt P46663)
T1 construct: expressed in transfected cells; host or cells: CHO K1 cells
T1 sequence (P46663 1-353): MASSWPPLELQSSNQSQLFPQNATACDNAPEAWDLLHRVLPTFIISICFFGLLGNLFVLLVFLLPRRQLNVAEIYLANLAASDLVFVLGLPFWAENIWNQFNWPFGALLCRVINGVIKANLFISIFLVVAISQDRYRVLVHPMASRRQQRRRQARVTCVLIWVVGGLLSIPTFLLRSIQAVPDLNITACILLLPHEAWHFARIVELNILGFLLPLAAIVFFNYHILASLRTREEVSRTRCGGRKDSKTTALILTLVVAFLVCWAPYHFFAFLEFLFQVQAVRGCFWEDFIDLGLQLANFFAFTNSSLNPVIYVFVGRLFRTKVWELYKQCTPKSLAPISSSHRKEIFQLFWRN
Test: Functional investigation on the bradykinin 1 receptor (B1R), FLIPR Ca2+ assay, hB1R cells
Type: cell-based
Settings: CHO K1 cells with human B1R, agonist Lys-Des-Arg9 bradykinin, % of maximum achievable inhibition; for inhibition at 10 µM: CHO-K1, 10 μM test substance, read-out: B1R antagonism, human [10 μM] % inhibition
Protocol: The agonistic or antagonistic action of substances can be quantified on the bradykinin 1 receptor (B1R) of the human and rat species with ectopically expressing cell lines (CHO K1 cells) and with the aid of a Ca^2+-sensitive dye (Fluo-4) using a fluorescent imaging plate reader (FLIPR). The indication in % activation is based on the Ca^2+ signal after addition of Lys-Des-Arg^9 bradykinin (0.5 nM) or Des-Arg^9 bradykinin (100 nM). Antagonists lead to a suppression of the Ca^2+ influx following administration of the agonist. The % inhibition in comparison with the maximum achievable inhibition is indicated.
1. Functional Investigation on the Bradykinin 1 Receptor (B1R)
The agonistic or antagonistic action of substances can be determined on the bradykinin 1 receptor (B1R) of the human and rat species with the following assay. According to this assay, the Ca^2+ inflow through the channel is quantified with the aid of a Ca^2+-sensitive dye (Fluo-4 type, Molecular Probes Europe BV, Leiden, Netherlands) in a fluorescent imaging plate reader (FLIPR, Molecular Devices, Sunnyvale, USA).
Chinese hamster ovary cells (CHO K1 cells) which are stably transfected with the human B1R gene (hB1R cells) or the B1R gene of the rat (rB1R cells) are used. For functional investigations these cells are plated-out onto black 96-well plates with a clear base (BD Biosciences, Heidelberg, Germany or Greiner, Frickenhausen, Germany) in a density of 20,000-35,000 cells/well. Overnight the cells are incubated at 37° C. and 5% CO2 in culture medium (hB1R cells: Ham's Nutrient Mixture F12, Gibco Invitrogen GmbH, Karlsruhe, Germany or DMEM, Sigma-Aldrich, Taufkirchen, Germany; rB1R cells: D-MEM/F12, Gibco Invitrogen, Karlsruhe, Germany) with 10 vol. % FBS (foetal bovine serum, Gibco Invitrogen GmbH, Karlsruhe, Germany or PAN Biotech GmbH, Aidenbach, Germany).
On the following day the cells are loaded with 2.13 μM Fluo-4 (Molecular Probes Europe BV, Leiden, Netherlands) in HBSS buffer (Hank's buffered saline solution, Gibco Invitrogen GmbH, Karlsruhe, Germany) with 2.5 mM probenecid (Sigma-Aldrich, Taufkirchen, Germany) and 10 mM HEPES (Sigma-Aldrich, Taufkirchen, Germany) for 60 min at 37° C. The plates are subsequently washed twice with HBSS buffer, and HBSS buffer which additionally contains 0.1% BSA (bovine serum albumin; Sigma-Aldrich, Taufkirchen, Germany), 5.6 mM glucose and 0.05% gelatine (Merck KGaA, Darmstadt, Germany) is added. After a further incubation of 20 minutes at room temperature, the plates are inserted into the FLIPR for Ca^2+ measurement.
Alternatively they are washed with buffer A (15 mM HEPES, 80 mM NaCl, 5 mM KCl, 1.2 mM CaCl2, 0.7 mM MgSO4, 2 g/l glucose, 2.5 mM probenecid) and loaded with buffer A with added 2.5 μM Fluo-4 and 0.025% Pluronic F127 (Sigma-Aldrich, Taufkirchen, Germany). The cells are then washed twice with buffer A and incubated for 30 minutes with buffer A, which additionally contains 0.05% BSA and 0.05% gelatine, at room temperature and then used for Ca^2+ measurement in the FLIPR. The Ca^2+-dependent fluorescence is measured here before and after addition of substances (λex=488 nm, λem=540 nm). The quantification is performed by measuring the highest fluorescence intensity (FC, fluorescence counts) over time.
The FLIPR protocol comprises two additions of substance. Test substances (10 μM) are first pipetted onto the cells and the Ca^2+ inflow is compared with the control (hB1R: Lys-Des-Arg^9 bradykinin>=50 nM; rB1R: Des-Arg^9 bradykinin 10 μM). The value in % activation based on the Ca^2+ signal after addition of Lys-Des-Arg^9 bradykinin (>=50 nM) or Des-Arg^9 bradykinin (10 μM) is obtained therefrom. After incubation for 10-20 minutes, Lys-Des-Arg^9 bradykinin (hB1R) or Des-Arg^9 bradykinin (rB1R) is applied in the EC80 concentration and the inflow of Ca^2+ is likewise determined.
Antagonists lead to a suppression of the Ca^2+ inflow. The % inhibition in comparison with the maximum achievable inhibition is calculated. […]

Compound | inhibition at 10 µM [%] | B1R antagonism, human [10 μM] % inhibition (10 μM test substance, 10 µM) [%]
Cc1cccc2c1C(=O)N(c1ccc3ccn(CC(=O)N4CCC5(CC4)CCN(c4ccncc4)CC5)c3c1)C2 [Compound G-26, 7-Methyl-2-[1-[2-oxo-2-(9-pyridin-4-yl-3,9-diazaspiro[5.5]undecan-3-yl)-ethyl]-1H-indol-6-yl]-2,3-dihydro-isoindol-1-one] | 98 | 
O=C(Cn1ccc2ccc(N3Cc4cccc(Cl)c4C3=O)cc21)N1CCC2(CCC(N3CC(F)(F)C3)CC2)CC1 [Compound G-20, 7-Chloro-2-(1-(2-(9-(3,3-difluoroazetidin-1-yl)-3-azaspiro[5.5]undecan-3-yl)-2-oxoethyl)-1H-indol-6-yl)isoindolin-1-one] | 43 | 
O=C(Cn1ccc2ccc(N3Cc4cccc(Cl)c4C3=O)cc21)N1CCC2(CCC(Oc3ccncc3)CC2)CC1 [Compound G-19, 7-Chloro-2-(1-(2-oxo-2-(9-(pyridin-4-yloxy)-3-azaspiro[5.5]undecan-3-yl)ethyl)-1H-indol-6-yl)isoindolin-1-one] | 97 | 
O=C(Cn1ccc2ccc(N3Cc4cccc(Cl)c4C3=O)cc21)N1CCC2(CCN(c3ccncc3)CC2)C1 [Compound G-12, 7-Chloro-2-(1-(2-oxo-2-(8-(pyridin-4-yl)-2,8-diazaspiro[4.5]decan-2-yl)ethyl)-1H-indol-6-yl)isoindolin-1-one] | 98 | 
COc1cc(C)c(S(=O)(=O)Nc2cccc3ccn(CC(=O)N4CCC5(CCC(Oc6ccncc6)CC5)CC4)c23)c(C)c1 [Compound G-22, 4-Methoxy-2,6-dimethyl-N-(1-(2-oxo-2-(9-(pyridin-4-yloxy)-3-azaspiro[5.5]undecan-3-yl)ethyl)-1H-indol-7-yl)benzenesulfonic acid amide] | 100 | 
COc1cc(C)c(S(=O)(=O)Nc2cccc3ccn(CCC(=O)NCCC4CCN(c5ccncc5)CC4)c23)c(C)c1 [G_CC-47, 3-[7-[[(4-Methoxy-2,6-dimethyl-phenyl)sulfonyl]amino]-1H-indol-1-yl]-N-[2-(1-pyridin-4-yl-piperidin-4-yl)-ethyl]-propionamide] | 100 | 
O=C(Cn1ccc2ccc(N3CCn4ccc(Cl)c4C3=O)cc21)N1CCC2(CC1)CCN(c1ccncc1)CC2 [Compound G-33, 8-Chloro-2-[1-[2-oxo-2-(9-pyridin-4-yl-3,9-diazaspiro[5.5]undecan-3-yl)-ethyl]-1H-indol-6-yl]-3,4-dihydro-2H-pyrrolo[1,2-a]pyrazin-1-one] | 93 | 
COc1cc(C)c(S(=O)(=O)Nc2cccc3ccn(CC(=O)N4CCC5(CC4)CCN(Cc4ccccc4)C5=O)c23)c(C)c1 [G_CC-32, N-[1-[2-(3-Benzyl-4-oxo-3,8-diazaspiro[4.5]decan-8-yl)-2-oxo-ethyl]-1H-indol-7-yl]-4-methoxy-2,6-dimethyl-benzenesulfonic acid amide] | 73 | 
Cc1cc(S(=O)(=O)Nc2ccc3ccn(CC(=O)N4CCN(CC5CCN(C)CC5)CC4)c3c2)c(C)cc1Cl [G_CC-8, 4-Chloro-2,5-dimethyl-N-[1-[2-[4-[(1-methyl-piperidin-4-yl)-methyl]-piperazin-1-yl]-2-oxo-ethyl]-1H-indol-6-yl]-benzenesulfonic acid amide] | 26 | 
O=C(CCn1ccc2ccc(N3Cc4cccc(Cl)c4C3=O)cc21)N1CCC2(CC1)CCN(c1ccncc1)CC2 [G_CC-67, 7-Chloro-2-[1-[3-oxo-3-(3-pyridin-4-yl-3,9-diazaspiro[5.5]undecan-9-yl)-propyl]-1H-indol-6-yl]-2,3-dihydro-isoindol-1-one] |  | 99
O=C(Cn1ccc2ccc(N3Cc4cccc(Cl)c4C3=O)cc21)N1CCC2(CCC(N3CCC3)CC2)CC1 [Compound G-21, 2-(1-(2-(9-(Azetidin-1-yl)-3-azaspiro[5.5]undecan-3-yl)-2-oxoethyl)-1H-indol-6-yl)-7-chloroisoindolin-1-one] | 99 | 
O=C(Cn1ccc2ccc(N3Cc4cccc(Cl)c4C3=O)cc21)N1CCC2(CC1)CC(c1ccncc1)=NO2 [Compound G-15, 7-Chloro-2-(1-(2-oxo-2-(3-(pyridin-4-yl)-1-oxa-2,8-diazaspiro[4.5]dec-2-en-8-yl)ethyl)-1H-indol-6-yl)isoindolin-1-one] | 81 | 
COc1cc(C)c(S(=O)(=O)Nc2cccc3ccn(CC(=O)N4CCC5(CCC(N6CCC6)CC5)CC4)c23)c(C)c1 [Compound G-18, N-(1-(2-(9-(azetidin-1-yl)-3-azaspiro[5.5]undecan-3-yl)-2-oxoethyl)-1H-indol-7-yl)-4-methoxy-2,6-dimethylbenzenesulfonic acid amide] | 99 | 
COc1cc(C)c(S(=O)(=O)Nc2cccc3ccn(CC(=O)N4CCC(CCN5CCCC5)CC4)c23)c(C)c1 [Compound G-02, 4-Methoxy-2,6-dimethyl-N-[1-[2-oxo-2-[4-(2-pyrrolidin-1-yl-ethyl)-piperidin-1-yl]-ethyl]-1H-indol-7-yl]-benzenesulfonic acid amide] | 95 | 
O=C(CCn1ccc2ccc(N3Cc4cccc(Cl)c4C3=O)cc21)N1CCC2(CC1)CCN(c1ccncc1)CC2 [Compound G-07, 7-Chloro-2-[1-[3-oxo-3-(9-pyridin-4-yl-3,9-diazaspiro[5.5]undecan-3-yl)-propyl]-1H-indol-6-yl]-2,3-dihydro-isoindol-1-one] | 96 | 
COc1cc(C)c(S(=O)(=O)Nc2cccc3ccn(CCC(=O)N4CCC5(CC4)CCN(c4ccncc4)CC5)c23)c(C)c1 [G_CC-54, 4-Methoxy-2,6-dimethyl-N-[1-[3-oxo-3-(3-pyridin-4-yl-3,9-diazaspiro[5.5]undecan-9-yl)-propyl]-1H-indol-7-yl]-benzenesulfonic acid amide] | 99 | 
COc1cc(C)c(S(=O)(=O)Nc2cccc3ccn(CC(=O)N4CCC5(CC4)CC(c4ccncc4)=NO5)c23)c(C)c1 [Compound G-13, 4-Methoxy-2,6-dimethyl-N-(1-(2-oxo-2-(3-(pyridin-4-yl)-1-oxa-2,8-diazaspiro[4.5]dec-2-en-8-yl)ethyl)-1H-indol-7-yl)benzenesulfonic acid amide] | 73 | 
COc1cc(C)c(S(=O)(=O)Nc2ccc3ccn(CC(=O)N4CCC(CCN5CCCC5)CC4)c3c2)c(C)c1 [Compound G-01, 4-Methoxy-2,6-dimethyl-N-[1-[2-oxo-2-[4-(2-pyrrolidin-1-yl-ethyl)-piperidin-1-yl]-ethyl]-1H-indol-6-yl]-benzenesulfonic acid amide] | 98 | 
